From patent publication EP0110748A1, “Derivatives of phenyl-(3-aminopropyl) ketone, their therapeutical use and process for their preparation” (LABORATOIRE L. LAFON Société anonyme dite:, priority 1982, dated 1984)
Read-outs that look alike come from different tables or passages of the source.

Tests used:
chiens = experiment: Duration of the vasodilator action, repeated intraduodenal administration in dogs; format: in vivo, chien
Protocol: Trois chiens (poids moyen 11,1 kg) reçoivent le CRL 41 080 par voie intraduodénale à la dose de 5 mg/kg à deux reprises (délai entre les deux administrations : 90 min) puis 6 mg/kg I.D. de LL 1656 et, 2 heures plus tard, une nouvelle administration de 5 mg/kg I.D. de CRL 41 080.

chien anesthésié [1] = experiment: Cardiovascular properties in the anaesthetised dog, I.V. (arterial pressures, heart rate, femoral arterial flow); format: in vivo
Excerpt: Le tableau II concerne les variations des pressions […]. systolique, diastolique, […]équence cardiaque et du débit artériel fémoral.

chiens anesthésiés [2] = experiment: Femoral vasodilator action by intravenous infusion in anaesthetised dogs; format: in vivo, chien
Protocol: Deux chiens (poids moyen 12,4 kg) anesthésiés au pento- barbital reçoivent le CRL 41 080 par voie intraveineuse, en perfusion de 6 min, aux doses successives de 2 fois 1 mg/kg, puis 2 et 4 mg/kg toutes les 60 min. Pour comparaison, ces animaux reçoivent en fin d'essai une perfusion de 6 mg/kg I.V. d'un produit de référence connu, le LL 1656 précité.

chiens anesthésiés [3] = experiment: Vasodilator action by intraduodenal route in anaesthetised dogs; format: in vivo, chien; conditions: voie intraduodénale
Excerpt: On mesure la pression artérielle, la fréquence cardiaque, le débit artériel fémoral, le débit artériel vertébral, les températures rectale et cutanée.

[4] = Acute toxicity, DL-50 I.V. in male mice; conditions: mouse, in vivo, iv, lots de 10 souris mâles
Excerpt: (§1) Le tableau I concerne la toxicité chez la souris mâle, d'une part, et la dose minimale induisant chez le chien anesthésié une action vasodilatatrice fémorale nette, d'autre part. La DL-50 I.V. a été déterminée sur des lots de 10 souris mâles; la dose minimale vasodilatatrice a été déterminée sur un lot de 5 chiens servant de témoins par rapport à eux-mêmes et recevant chaque dose de produit à tester toutes les 2,5 heures.

homme = experiment: Clinical trials in man; format: in vivo; conditions: voie orale (trois gélules par jour de 100 mg) et voie injectable (I.V. ou I.M., une ampoule par jour de 40 mg)
[5] = Solubility in water (observation on the isolated product); format: physicochemical; conditions: poudre blanche
Protocol: On fait passer entre -5°C et 0°C pendant 2,5 h un courant d'acide chlorhydrique sec au sein d'une solution de 16,8 g (0,10 mole) de 1,3,5-triméthoxybenzène et de 16,6 g (0,10 mole) de 4-hexaméthylèneimino-butyronitrile en solution dans 115 ml de chlorobenzène anhydre. On abandonne la suspension au froid entre 0°C et +4°C une nuit et on extrait le milieu réactionnel par de l'eau. On porte la phase aqueuse au reflux pendant 1 h, on alcalinise par de la soude concentrée et on extrait le précipité par de l'éther diéthylique pour donner 29,8 g d'une huile jaune pale. Cette huile est traitée dans l'éther diéthylique par de l'éthanol chlorhydrique. […] Finst (^Kofler) = 150°C.

chien anesthésié [6] = experiment: Minimal dose inducing a clear femoral vasodilator action in the anaesthetised dog; format: in vivo; conditions: Canis lupus familiaris, lot de 5 chiens
Excerpt: as §1

[7] = Antispasmodic properties (no method described)
[8] = 5 mg/kg I.D., first administration
[9] = 5 mg/kg I.D., second administration
[10] = dose supplémentaire de 5 mg/kg I.D., 2 heures after LL 1656
[11] = I.V., perfusion de 6 min, 2 fois 1 mg/kg puis 2 et 4 mg/kg, deux chiens
[12] = intraduodenal, par voie I.D., '-(d)' = pas d'action vasodilatatrice par voie I.D., read-out: dose minimale induisant chez le chien anesthésié une action vasodilatatrice fémorale par voie I.D.
[13] = iv, par voie I.V., read-out: dose minimale induisant chez le chien anesthésié une action vasodilatatrice fémorale par voie I.V.
[14] = 6 mg/kg I.D., after two administrations of CRL 41 080

COc1cc(OC)c(C(=O)CCCN2CCCCCC2)c(OC)c1 [CRL 41080, chlorhydratede (2,4,6-triméthoxyphényl)-(3-hexaméthylèneiminopropyl)-cétone]
autres paramètres mesurés (chiens; [8]): ne sont pas modifiés
time at which the effect on débit fémoral has disappeared (chiens; [8]): 120 min
time at which the effect on débit fémoral has lost half of its intensity (chiens; [8]): 60 min
time of maximal effect on débit fémoral (chiens; [8]): 30 min
débit fémoral (chiens; 5 mg/kg I.D., first administration, trois chiens): augmente le débit fémoral
débit vertébral (chiens; 5 mg/kg I.D., repeated): ne diminue pas le débit vertébral
persistence of the effect on débit fémoral (chiens; [9]): encore présent à 120 min
time of maximal effect on débit fémoral (chiens; [9]): 30 min
débit fémoral (chiens; 5 mg/kg I.D., second administration (90 min after the first)): effet plus intense sur le débit fémoral
débit fémoral (chiens; [10]): n'augmente pas davantage le débit fémoral
pression artérielle, fréquence cardiaque (chiens; [10]): entraîne une hypotension et une bradycardie
Variation 0,25 h après administration P.A. systolique (chien anesthésié [1]; 1 mg/kg I.V., 0,25 h après administration): 0
Variation 0,25 h après administration P.A. moyenne (chien anesthésié [1]; 2 mg/kg I.V., 0,25 h après administration): 0
débit fémoral (chiens anesthésiés [2]; [11]): le débit fémoral augmente pendant la durée de la perfusion dès 1 mg/kg
pression artérielle, fréquence cardiaque (chiens anesthésiés [2]; [11]): ne modifie pas la pression artérielle ni la fréquence cardiaque
débit vertébral (chiens anesthésiés [3]; doses successives 0,5 - 10 mg/kg): il semble que le débit vertébral soit diminué, mais cet effet n'est pas statistiquement significatif
débit fémoral (chiens anesthésiés [3]; doses successives 0,5 - 10 mg/kg, quatre chiens): augmente nettement le débit fémoral à partir de la dose de 5 mg/kg
durée de l'effet sur le débit fémoral (chiens anesthésiés [3]; à partir de 5 mg/kg): plus d'une heure
LD50 [4]: 96 ± 3 mg/kg
résultats des essais cliniques chez l'homme (homme): bons résultats
solubilité dans l'eau [5]: soluble dans l'eau
minimal effective dose (chien anesthésié [6]; [12]): 5 mg/kg
minimal effective dose (chien anesthésié [6]; [13]): 1 mg/kg
propriétés antispasmodiques [7]: ne présente pas les propriétés antispasmodiques

COc1cc(OC)c(C(=O)CCCN2CCCCC2)c(OC)c1 [LL 1647, chlorhydratede (2,4,6-triméthoxyphényl)-(3-pipéridi-nopropyl)-cétone]
LD50 [4]: 68 ± 4 mg/kg
minimal effective dose (chien anesthésié [6]; [13]): 5 mg/kg

COc1cc(OC)c(C(=O)CCCN2CCCC2)c(OC)c1 [LL 1656, chlorhydratede (2,4,6-triméthoxyphényl)-(3-pyrrolidinopropyl)-cétone, reference compound]
débit fémoral (chiens; [14]): augmentation de débit fémoral d'intensité moyenne
time of maximal effect on débit fémoral (chiens; [14]): 120 min
Variation 0,25 h après administration Fréquence cardiaque (chien anesthésié [1]; 6 mg/kg I.V., 0,25 h après administration): 0
débit fémoral (chiens anesthésiés [2]; perfusion de 6 mg/kg I.V. en fin d'essai, comparison with 1 mg/kg of CRL 41 080): augmente moins le débit fémoral que 1 mg/kg de CRL 41 080
LD50 [4]: 60 ± 2.2 mg/kg
minimal effective dose (chien anesthésié [6]; [12]): 6 mg/kg
minimal effective dose (chien anesthésié [6]; [13]): 5 mg/kg
